Data taken from patent US7687538B2 (priority 2004, dated 2010).

What was measured:
κ-opioid receptor (KOR) = κ-opioid receptor (KOR) (Homo sapiens, UniProt P41145); test: biochemical; assay type: binding
[1] = Siebert 1994; cited from earlier work
[2] = target: kappa opiate receptor (KOR) (Homo sapiens, UniProt P41145); conditions: Roth 2002; cited from earlier work
Chain of kappa opiate receptor (KOR) (P41145 whole entry): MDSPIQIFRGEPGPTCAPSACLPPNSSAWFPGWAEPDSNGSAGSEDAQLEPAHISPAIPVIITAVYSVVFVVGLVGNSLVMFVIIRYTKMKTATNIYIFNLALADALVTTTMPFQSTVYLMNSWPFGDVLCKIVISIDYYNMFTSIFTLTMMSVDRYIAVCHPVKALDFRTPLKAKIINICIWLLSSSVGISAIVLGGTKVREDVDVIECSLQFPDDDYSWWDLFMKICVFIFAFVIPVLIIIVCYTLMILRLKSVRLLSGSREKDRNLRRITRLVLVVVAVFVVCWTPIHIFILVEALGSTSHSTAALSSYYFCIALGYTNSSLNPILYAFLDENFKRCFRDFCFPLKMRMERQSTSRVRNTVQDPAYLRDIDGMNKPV

Chain of κ-opioid receptor (KOR) (P41145 whole entry): as above

SMILES	Ki (κ-opioid receptor (KOR))	human dose (psychedelic agent) [1]	agonist character at the kappa opiate receptor [2]
COC(=O)[C@@H]1C[C@H](S)C(=O)[C@H]2[C@@]1(C)CC[C@H]1C(=O)O[C@H](c3ccoc3)C[C@]21C [2-Thiol salvinorin B]	11.2 nM	–	–
COC(=O)[C@@H]1C[C@H](OC(C)=O)C(=O)[C@H]2[C@@]1(C)CC[C@H]1C(=O)O[C@H](c3ccoc3)C[C@]21C [Salvinorin A]	–	0.5 to 1 mg	full agonist
COC(=O)[C@@H]1C[C@H](SC(C)=O)C(=O)[C@H]2[C@@]1(C)CC[C@H]1C(=O)O[C@H](c3ccoc3)C[C@]21C [Salvinorinyl-2-thioacetate]	7.9 nM	–	–
